Where “and” joins values, the source holds several entries; their conditions need not be identical. Equal values may be shown once.
Assay: xn = mol fraction of the nth substance listed

NCC(=O)O + O
viscosity
Conditions | 101 kPa | 101.33 kPa
293.15 K, x1 = 0.0194 | 1.181 mPa·s | –
293.15 K, x1 = 0.0294 | 1.272 mPa·s | –
293.15 K, x1 = 0.036 | 1.332 mPa·s | –
298.15 K, x1 = 0.0002174 | 0.8944 mPa·s and 0.8944 mPa·s | –
298.15 K, x1 = 0.0004 | 0.894 mPa·s | –
298.15 K, x1 = 0.0007 | 0.8972 mPa·s | –
298.15 K, x1 = 0.0009 | 0.8942 mPa·s | –
298.15 K, x1 = 0.0009413 | 0.9111 mPa·s and 0.9111 mPa·s | –
298.15 K, x1 = 0.00135 | 0.8968 mPa·s | –
298.15 K, x1 = 0.0018 | 0.8995 mPa·s | –
298.15 K, x1 = 0.002695 | 0.9053 mPa·s | –
298.15 K, x1 = 0.003657 | 0.9319 mPa·s and 0.9319 mPa·s | –
298.15 K, x1 = 0.005496 | 0.932 mPa·s and 0.932 mPa·s | –
298.15 K, x1 = 0.008976 | 0.9754 mPa·s and 0.9754 mPa·s | –
298.15 K, x1 = 0.0108 | 0.9757 mPa·s and 0.9757 mPa·s | –
298.15 K, x1 = 0.01215 | 0.9853 mPa·s and 0.9853 mPa·s | –
298.15 K, x1 = 0.01456 | 0.986 mPa·s and 0.986 mPa·s | –
303.15 K, x1 = 0.0003 | 0.803 mPa·s | –
303.15 K, x1 = 0.0004 | 0.8014 mPa·s | –
303.15 K, x1 = 0.0007 | 0.8046 mPa·s | –
303.15 K, x1 = 0.0009 | 0.801 mPa·s | –
303.15 K, x1 = 0.00135 | 0.8035 mPa·s | –
303.15 K, x1 = 0.0018 | 0.8126 mPa·s | –
303.15 K, x1 = 0.002 | 0.816 mPa·s | –
303.15 K, x1 = 0.0022 | 0.8155 mPa·s | –
303.15 K, x1 = 0.002695 | 0.8117 mPa·s | –
303.15 K, x1 = 0.0029 | 0.8217 mPa·s | –
303.15 K, x1 = 0.003592 | 0.8207 mPa·s | –
303.15 K, x1 = 0.0063 | 0.8489 mPa·s | –
303.15 K, x1 = 0.0107 | 0.8659 mPa·s | –
303.15 K, x1 = 0.01246 | 0.8788 mPa·s | –
303.15 K, x1 = 0.0129 | 0.8994 mPa·s | –
303.15 K, x1 = 0.0194 | 0.9492 mPa·s | –
303.15 K, x1 = 0.0294 | 1.026 mPa·s | –
303.15 K, x1 = 0.036 | 1.076 mPa·s | –
308.15 K, x1 = 0.00135 | 0.7251 mPa·s | –
308.15 K, x1 = 0.0018 | 0.7276 mPa·s and 0.7355 mPa·s | 0.7365 mPa·s
308.15 K, x1 = 0.0022 | 0.7378 mPa·s | –
308.15 K, x1 = 0.0025 | 0.7407 mPa·s | –
308.15 K, x1 = 0.0029 | 0.7439 mPa·s | –
308.15 K, x1 = 0.003657 | 0.7609 mPa·s and 0.7609 mPa·s | –
308.15 K, x1 = 0.005496 | 0.7659 mPa·s and 0.7659 mPa·s | –
308.15 K, x1 = 0.007374 | 0.7773 mPa·s and 0.7773 mPa·s | –
308.15 K, x1 = 0.0108 | 0.8059 mPa·s and 0.8059 mPa·s | –
308.15 K, x1 = 0.01215 | 0.806 mPa·s and 0.806 mPa·s | –
308.15 K, x1 = 0.01456 | 0.8089 mPa·s and 0.8089 mPa·s | –
313.15 K, x1 = 0.001 | 0.664 mPa·s and 0.6667 mPa·s | –
313.15 K, x1 = 0.00135 | 0.6585 mPa·s | –
313.15 K, x1 = 0.002 | 0.667 mPa·s | –
313.15 K, x1 = 0.0022 | 0.6712 mPa·s | –
313.15 K, x1 = 0.0025 | 0.6739 mPa·s | –
313.15 K, x1 = 0.005375 | 0.6819 mPa·s | –
313.15 K, x1 = 0.0129 | 0.727 mPa·s | –
313.15 K, x1 = 0.0194 | 0.7628 mPa·s | –
313.15 K, x1 = 0.0294 | 0.8179 mPa·s | –
313.15 K, x1 = 0.036 | 0.8542 mPa·s | –
318.15 K, x1 = 0.0002174 | 0.6164 mPa·s and 0.6164 mPa·s | –
318.15 K, x1 = 0.0009 | 0.6007 mPa·s | –
318.15 K, x1 = 0.0018 | 0.6052 mPa·s | –
318.15 K, x1 = 0.001865 | 0.6321 mPa·s | –
318.15 K, x1 = 0.002245 | 0.6076 mPa·s | –
318.15 K, x1 = 0.002695 | 0.6099 mPa·s | –
318.15 K, x1 = 0.005496 | 0.6417 mPa·s | –
318.15 K, x1 = 0.007374 | 0.6579 mPa·s and 0.6579 mPa·s | –
318.15 K, x1 = 0.008976 | 0.6725 mPa·s and 0.6725 mPa·s | –
318.15 K, x1 = 0.0108 | 0.6756 mPa·s and 0.6756 mPa·s | –
318.15 K, x1 = 0.01215 | 0.6757 mPa·s and 0.6757 mPa·s | –
318.15 K, x1 = 0.01456 | 0.6821 mPa·s and 0.6821 mPa·s | –
323.15 K, x1 = 0.0003 | 0.5508 mPa·s | –
323.15 K, x1 = 0.002 | 0.5589 mPa·s | –
323.15 K, x1 = 0.008932 | 0.5878 mPa·s | –
323.15 K, x1 = 0.01246 | 0.6035 mPa·s | –
323.15 K, x1 = 0.0194 | 0.6412 mPa·s | –
323.15 K, x1 = 0.0294 | 0.6885 mPa·s | –
323.15 K, x1 = 0.036 | 0.7197 mPa·s | –

Source: the CheMixHub viscosity set
